Two molecules from US11964941B2, “5-Bromo-indirubins” (City of Hope, priority 2014, dated 2024) can be followed below.

The target in one assay is FMS (Homo sapiens, UniProt P07333). Kind of assay: In vitro kinase assay, recombinant FMS. It counts as biochemical. The conditions noted are these: 33P-ATP, 120 min. As for the experimental part:
(§1) Compound (1289) inhibits activities of FMS, PDGFR α, PDGFR β and c-KIT in vitro. The kinase assays were performed with recombinant FMS, PDGFR α, PDGFR β and c-KIT proteins. Briefly, proteins, freshly prepared substrates and ^33P-ATP (specific activity 0.01 μCi/μl final) were mixed in reaction buffer (20 mM HEPES pH 7.5, 10 mM MgCl2, 1 mM EGTA, 0.02% Brij35, 0.02 mg/ml BSA, 0.1 mM Na3VO4, 2 mM DTT) in the presence of DMSO as control or compound (1289). The mixtures were reacted for 120 min at room temperature. Samples were transferred onto P81 ion exchange paper and filters were extensively washed with 0.75% phosphoric acid. The radioactivities were monitored.
as §1, with “The” for “Compound (1289) inhibits activities of FMS, PDGFR α, PDGFR β and c-KIT in vitro. The”, “class III receptor tyrosine kinase family” for “FMS, PDGFR α, PDGFR β and c-KIT”, “5IN-1NH1s.” for “compound (1289).”, “monitored. IC50 values were determined using GraphPad Prism software.” for “monitored.”

A further assay addresses PDGFR β (Homo sapiens, UniProt P09619). Put plainly: In vitro kinase assay, recombinant PDGFR β. Type of assay: biochemical. The note with it: 33P-ATP, 120 min. As for the experimental part: as §1
as §1, with “The” for “Compound (1289) inhibits activities of FMS, PDGFR α, PDGFR β and c-KIT in vitro. The”, “class III receptor tyrosine kinase family” for “FMS, PDGFR α, PDGFR β and c-KIT”, “5IN-1NH1s.” for “compound (1289).”, “monitored. IC50 values were determined using GraphPad Prism software.” for “monitored.”

The target of another assay is c-KIT (Homo sapiens, UniProt P10721). Kind of assay: In vitro kinase assay, recombinant c-KIT. Type of assay: biochemical. The conditions noted are these: 33P-ATP, 120 min. The procedure: as §1
as §1, with “The” for “Compound (1289) inhibits activities of FMS, PDGFR α, PDGFR β and c-KIT in vitro. The”, “class III receptor tyrosine kinase family” for “FMS, PDGFR α, PDGFR β and c-KIT”, “5IN-1NH1s.” for “compound (1289).”, “monitored. IC50 values were determined using GraphPad Prism software.” for “monitored.”

In the next assay the target is FLT3 (D835Y) (Homo sapiens, UniProt P36888, D835Y). Put plainly: In vitro kinase assay, recombinant FLT3 (D835Y). It counts as biochemical. The note with it: 33P-ATP, 120 min. The procedure:
as §1, with “The” for “Compound (1289) inhibits activities of FMS, PDGFR α, PDGFR β and c-KIT in vitro. The”, “class III receptor tyrosine kinase family” for “FMS, PDGFR α, PDGFR β and c-KIT”, “5IN-1NH1s.” for “compound (1289).”, “monitored. IC50 values were determined using GraphPad Prism software.” for “monitored.”
as §1, with “Kinase” for “Compound (1289) inhibits activities of FMS, PDGFR α, PDGFR β and c-KIT in vitro. The kinase”, “FLT3, mutated FLT3-ITD” for “FMS, PDGFR α, PDGFR β”, “D835I mutant FLT3 kinases.” for “c-KIT proteins.”, “monitored. IC50 values were determined using GraphPad Prism software.” for “monitored.”

For another assay, the system named is MOLM13 AML cells. Kind of assay: MTS cell viability, MOLM13 AML cells (FLT3-ITD). It counts as cell-based, human. The conditions noted are these: Homo sapiens, MOLM-13, 48 h, read-out: IC50 for 50% inhibition of viability. The procedure: (§2) MTS assays were performed for cell viability. Human cancer cells were seeded in 96-well plates (2500 cells/well for solid tumors, 5000 cells/well for blood tumors), incubated overnight at 37 C in 5% CO2, and exposed to 5IN-1NH1 or 5IN-1NH1s in a dose-dependent manner for 48 h. See FIGS. 1A-1B, 2A-2B, 3, 4A-4B, and 6A-6B. Dimethyl sulfoxide (DMSO) was used as the vehicle control. Viable cell numbers were determined by tetrazolium conversion to its formazan dye and absorbance was measured at 490 nm using an automated ELISA plate reader. Each experiment was performed in quadruplicate. IC50 values were determined using CalcuSyn software (BIOSOFT®, Cambridge GB).
(§3) Compound (1289) inhibits viabilities of MV4-11 and MOLM13 AML cells that harbor an internal tandem duplication (ITD) mutation. MTS assays were performed for cell viability. Human MV4-11 and MOLM13 AML cells (5000/well) were seeded in 96-well plates, incubated overnight at 37° C. in 5% CO2, and exposed to compound (1289) in a dose-dependent manner for 48 h. Dimethyl sulfoxide (DMSO) was used as the vehicle control. Viable cell numbers were determined by tetrazolium conversion to its formazan dye and absorbance was measured at 490 nm using an automated ELISA plate reader. Each experiment was performed in quadruplicate. IC50 values were determined using CalcuSyn software.

A further assay addresses FLT3 (ITD) (Homo sapiens, UniProt P36888). Put plainly: In vitro kinase assay, recombinant FLT3 (ITD). It counts as biochemical. The note with it: 33P-ATP, 120 min. The procedure:
as §1, with “The” for “Compound (1289) inhibits activities of FMS, PDGFR α, PDGFR β and c-KIT in vitro. The”, “class III receptor tyrosine kinase family” for “FMS, PDGFR α, PDGFR β and c-KIT”, “5IN-1NH1s.” for “compound (1289).”, “monitored. IC50 values were determined using GraphPad Prism software.” for “monitored.”
as §1, with “Kinase” for “Compound (1289) inhibits activities of FMS, PDGFR α, PDGFR β and c-KIT in vitro. The kinase”, “FLT3, mutated FLT3-ITD” for “FMS, PDGFR α, PDGFR β”, “D835I mutant FLT3 kinases.” for “c-KIT proteins.”, “monitored. IC50 values were determined using GraphPad Prism software.” for “monitored.”

The subject of the next assay is MV4-11 AML cells. Kind of assay: MTS cell viability, MV4-11 AML cells (FLT3-ITD). Type of assay: cell-based, human. The note with it: Homo sapiens, 48 h, read-out: IC50 for 50% inhibition of viability. As for the experimental part: as §2, §3
The subject of the next assay is Erk1/2. Kind of assay: Western blot, phosphorylation of Erk1/2 in AML cells. It counts as cell-based, human. The conditions noted are these: FLT-ITD mutated AML cells (MV4-11, MOLM13), 4h. As for the experimental part:
(§4) Western blot analyses were performed with specific antibodies. Briefly, human MV4-11 and MOLM13 AML cells were treated with compound (1289) in a dose-dependent manner for 4h. Whole-cell lysates (40 ug) were resolved by SDS-PAGE. Primary phospho-specific antibodies to p-Stat5 and […] were diluted in TBS (pH 7.5) with 5% (w/v) BSA and 0.1% (v/v) Tween-20 over night at 4° C. Primary specific antibodies to Stat5 and […] were diluted in PBS (pH 7.5) with 5% (w/v) nonfat milk and 0.1% (v/v) Tween-20 overnight at 4° C. Horseradish peroxidase-conjugated secondary antibodies were incubated in PBS (pH 7.5) with 5% (w/v) nonfat milk and 0.1% (v/v) Tween-20 for 1 h at room temperature. Positive immuno-reactive proteins were detected using the ECL system.

A further assay deals with STAT5. Kind of assay: Western blot, phosphorylation of STAT5 in AML cells. It counts as cell-based, human. The note with it: FLT-ITD mutated AML cells (MV4-11, MOLM13), 4h. The procedure: as §4
For the next assay, the target named is PDGFR α (Homo sapiens, UniProt P16234). Put plainly: In vitro kinase assay, recombinant PDGFR α. It counts as biochemical. The conditions noted are these: 33P-ATP, 120 min. The procedure:
as §1
as §1, with “The” for “Compound (1289) inhibits activities of FMS, PDGFR α, PDGFR β and c-KIT in vitro. The”, “class III receptor tyrosine kinase family” for “FMS, PDGFR α, PDGFR β and c-KIT”, “5IN-1NH1s.” for “compound (1289).”, “monitored. IC50 values were determined using GraphPad Prism software.” for “monitored.”

Another assay has as its system MV4-11 AML SQ xenografts. Kind of assay: MV4-11 AML SQ xenografts in vivo. Further details: species or system mouse. The conditions noted are these: NSG mice, 25 mg/kg orally twice daily for 18 days. The procedure:
Human MV4-11 AML cells (5×10^6) were resuspended in serum-free RPMI1640 medium and subcutaneously injected into the flank of 5-6 weeks old NOD/SCID/IL-2rg(ko) (NSG) female mouse. When palpable tumor sizes reached at approximately 100 mm^3, mice were randomly divided into two groups (vehicle=7, treatment=7). Then, compound (1289) was orally administered at 25 mg/kg with vehicle (10% DMSO+30% SOLUTOL®+60% Saline), twice daily for 18 days. Tumor volumes were calculated by the formula 1/2a×b^2, where a is the long diameter, and b is the short diameter. Tumor volumes correlate with tumor weights. The statistical significance of group differences was analyzed using a Student's t-test with the two-tailed distribution. P values less than 0.05 were considered statistically significant.

A further assay deals with FLT3 (Homo sapiens, UniProt P36888). Kind of assay: In vitro kinase assay, recombinant FLT3. Type of assay: biochemical. The conditions noted are these: recombinant FLT3, 33P-ATP, 120 min. The procedure:
as §1, with “The” for “Compound (1289) inhibits activities of FMS, PDGFR α, PDGFR β and c-KIT in vitro. The”, “class III receptor tyrosine kinase family” for “FMS, PDGFR α, PDGFR β and c-KIT”, “5IN-1NH1s.” for “compound (1289).”, “monitored. IC50 values were determined using GraphPad Prism software.” for “monitored.”
as §1, with “Kinase” for “Compound (1289) inhibits activities of FMS, PDGFR α, PDGFR β and c-KIT in vitro. The kinase”, “FLT3, mutated FLT3-ITD” for “FMS, PDGFR α, PDGFR β”, “D835I mutant FLT3 kinases.” for “c-KIT proteins.”, “monitored. IC50 values were determined using GraphPad Prism software.” for “monitored.”

Assay [1] deals with SKOV3 ovarian cancer cells. Put plainly: MTS cell viability, SKOV3 ovarian cancer cells. Type of assay: cell-based, human. The conditions noted are these: Homo sapiens, SK-OV-3, 48 h, read-out: IC50 for 50% inhibition of viability. The procedure: as §2
Assay [2] concerns MDA-MB-231 breast cancer cells. Kind of assay: MTS cell viability, MDA-MB-231 breast cancer cells. The conditions noted are these: Homo sapiens, 48 h, read-out: IC50 for 50% inhibition of viability. Type of assay: cell-based, human. The procedure: as §2
For assay [3], the system named is T315I ABL1 mutant KCL22 CML cells. Kind of assay: MTS cell viability, T315I ABL1 mutant KCL22 CML cells. Type of assay: cell-based, human. As for the experimental part: as §2
Human DU145 prostate cancer, A2058 melanoma, SKOV3 ovarian cancer and T315I ABL1 mutant KCL22 CML cells were seeded in 96-well plates (2500 cells/well for solid tumors, 5000 cells/well for blood tumors), incubated overnight at 37° C. in 5% CO2, and exposed to 5IN-6NC1, 5IN-1NH1, 5IN-6NNC6, or 5IN-6NNC7 in a dose-dependent manner for 48 h. Dimethyl sulfoxide (DMSO) was used as the vehicle control. Viable cell numbers were determined by tetrazolium conversion to its formazan dye and absorbance was measured at 490 nm using an automated ELISA plate reader. Each experiment was performed in quadruplicate. IC50 values were determined using CalcuSyn software.

A further assay concerns KCL22 CML cells. Put plainly: MTS cell viability, KCL22 CML cells. It counts as cell-based, human. The conditions noted are these: Homo sapiens, KCL-22, 48 h, read-out: IC50 for 50% inhibition of viability. The procedure:
as §2

For assay [4], the system named is DU145 prostate cancer cells. Kind of assay: MTS cell viability, DU145 prostate cancer cells. It counts as cell-based, human. The note with it: Homo sapiens, DU-145, 48 h, read-out: IC50 for 50% inhibition of viability. As for the experimental part:
as §2

The test system of a further assay is A2058 melanoma cells. Put plainly: MTS cell viability, A2058 melanoma cells. The conditions noted are these: Homo sapiens, 48 h, read-out: IC50 for 50% inhibition of viability. Type of assay: cell-based, human. The procedure: as §2
The subject of the next assay is A549 lung cancer cells. Put plainly: MTS cell viability, A549 lung cancer cells. The note with it: Homo sapiens, 48 h, read-out: IC50 for 50% inhibition of viability. It counts as cell-based, human. The procedure: as §2

Sequence of FMS (P07333 20-972, species assumed): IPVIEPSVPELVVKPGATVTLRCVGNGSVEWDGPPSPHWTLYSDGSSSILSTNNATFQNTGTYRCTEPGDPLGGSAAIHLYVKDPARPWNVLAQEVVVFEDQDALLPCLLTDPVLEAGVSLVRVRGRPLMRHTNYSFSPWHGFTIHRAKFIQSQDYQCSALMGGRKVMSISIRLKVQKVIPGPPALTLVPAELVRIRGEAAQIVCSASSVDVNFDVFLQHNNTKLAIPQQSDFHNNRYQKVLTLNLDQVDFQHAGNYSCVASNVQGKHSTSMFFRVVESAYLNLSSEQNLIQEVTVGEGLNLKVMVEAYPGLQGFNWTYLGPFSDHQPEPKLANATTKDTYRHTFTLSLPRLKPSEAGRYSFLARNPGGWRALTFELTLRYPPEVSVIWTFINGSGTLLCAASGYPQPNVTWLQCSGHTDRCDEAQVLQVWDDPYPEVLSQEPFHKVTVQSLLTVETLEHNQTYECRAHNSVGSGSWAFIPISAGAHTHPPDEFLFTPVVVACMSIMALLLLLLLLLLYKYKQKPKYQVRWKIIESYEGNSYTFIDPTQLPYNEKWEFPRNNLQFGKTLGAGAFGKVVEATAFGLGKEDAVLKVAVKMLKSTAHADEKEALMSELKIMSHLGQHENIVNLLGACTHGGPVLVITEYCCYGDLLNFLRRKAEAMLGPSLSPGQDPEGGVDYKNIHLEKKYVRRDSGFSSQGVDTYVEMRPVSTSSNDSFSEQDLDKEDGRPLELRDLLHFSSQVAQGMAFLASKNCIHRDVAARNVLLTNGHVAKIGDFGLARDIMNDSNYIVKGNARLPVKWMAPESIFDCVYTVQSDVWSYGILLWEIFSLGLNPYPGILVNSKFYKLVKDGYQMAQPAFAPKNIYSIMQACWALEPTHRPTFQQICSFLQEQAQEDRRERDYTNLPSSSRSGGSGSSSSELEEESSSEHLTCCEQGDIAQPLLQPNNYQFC
Sequence of PDGFR β (P09619 33-1106, species assumed): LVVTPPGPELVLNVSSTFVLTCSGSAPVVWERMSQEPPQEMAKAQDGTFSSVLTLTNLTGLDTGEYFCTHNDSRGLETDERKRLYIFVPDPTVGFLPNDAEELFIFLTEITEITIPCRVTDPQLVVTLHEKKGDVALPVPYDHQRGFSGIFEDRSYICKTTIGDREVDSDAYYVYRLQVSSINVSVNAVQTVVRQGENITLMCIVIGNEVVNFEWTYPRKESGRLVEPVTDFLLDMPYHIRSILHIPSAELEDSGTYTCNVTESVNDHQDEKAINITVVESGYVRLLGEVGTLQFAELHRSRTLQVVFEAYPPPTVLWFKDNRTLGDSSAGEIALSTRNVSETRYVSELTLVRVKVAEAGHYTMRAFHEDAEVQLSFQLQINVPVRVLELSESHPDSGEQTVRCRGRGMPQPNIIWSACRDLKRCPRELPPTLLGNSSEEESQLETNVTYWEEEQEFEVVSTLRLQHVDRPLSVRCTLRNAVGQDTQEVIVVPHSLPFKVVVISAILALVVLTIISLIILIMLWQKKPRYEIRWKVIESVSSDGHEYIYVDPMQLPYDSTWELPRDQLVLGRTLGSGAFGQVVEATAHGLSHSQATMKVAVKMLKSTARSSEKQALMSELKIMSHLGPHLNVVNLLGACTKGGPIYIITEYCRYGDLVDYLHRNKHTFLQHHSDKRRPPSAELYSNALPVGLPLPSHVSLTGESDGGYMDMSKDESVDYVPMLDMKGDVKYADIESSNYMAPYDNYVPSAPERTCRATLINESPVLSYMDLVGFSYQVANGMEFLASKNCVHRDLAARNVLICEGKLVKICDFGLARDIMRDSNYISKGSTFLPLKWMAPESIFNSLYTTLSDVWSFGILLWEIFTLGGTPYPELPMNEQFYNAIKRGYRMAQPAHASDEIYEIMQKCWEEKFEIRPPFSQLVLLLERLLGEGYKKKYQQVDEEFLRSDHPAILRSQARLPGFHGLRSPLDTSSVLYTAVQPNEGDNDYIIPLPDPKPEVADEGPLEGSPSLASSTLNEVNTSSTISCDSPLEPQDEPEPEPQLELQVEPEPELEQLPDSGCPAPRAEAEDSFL
Sequence of c-KIT (P10721 26-976): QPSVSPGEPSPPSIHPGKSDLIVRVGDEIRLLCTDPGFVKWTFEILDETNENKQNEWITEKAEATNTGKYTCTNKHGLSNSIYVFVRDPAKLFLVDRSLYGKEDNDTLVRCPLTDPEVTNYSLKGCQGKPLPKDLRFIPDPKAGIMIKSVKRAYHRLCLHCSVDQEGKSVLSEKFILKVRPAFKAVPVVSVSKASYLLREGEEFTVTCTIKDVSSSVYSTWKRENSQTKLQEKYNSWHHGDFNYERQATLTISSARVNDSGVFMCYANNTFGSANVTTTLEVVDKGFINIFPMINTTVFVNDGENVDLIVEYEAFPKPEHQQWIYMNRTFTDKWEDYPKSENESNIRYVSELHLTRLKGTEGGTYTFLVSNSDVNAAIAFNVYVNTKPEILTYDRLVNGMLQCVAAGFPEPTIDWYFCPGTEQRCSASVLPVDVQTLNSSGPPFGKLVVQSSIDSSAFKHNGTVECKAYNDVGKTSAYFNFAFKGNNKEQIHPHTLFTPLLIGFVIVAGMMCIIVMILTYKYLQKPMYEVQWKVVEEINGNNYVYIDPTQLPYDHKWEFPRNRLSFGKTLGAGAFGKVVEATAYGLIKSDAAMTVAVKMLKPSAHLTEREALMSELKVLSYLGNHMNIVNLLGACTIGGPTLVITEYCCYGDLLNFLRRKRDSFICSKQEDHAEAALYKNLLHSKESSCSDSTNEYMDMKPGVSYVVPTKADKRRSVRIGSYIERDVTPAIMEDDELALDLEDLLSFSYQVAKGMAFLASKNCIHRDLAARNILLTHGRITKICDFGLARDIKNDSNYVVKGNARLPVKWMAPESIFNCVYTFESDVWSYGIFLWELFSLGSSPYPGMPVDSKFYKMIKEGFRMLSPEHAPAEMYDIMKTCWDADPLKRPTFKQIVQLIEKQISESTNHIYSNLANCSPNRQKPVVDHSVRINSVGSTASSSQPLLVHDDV
Sequence of PDGFR α (P16234 24-1089, species assumed): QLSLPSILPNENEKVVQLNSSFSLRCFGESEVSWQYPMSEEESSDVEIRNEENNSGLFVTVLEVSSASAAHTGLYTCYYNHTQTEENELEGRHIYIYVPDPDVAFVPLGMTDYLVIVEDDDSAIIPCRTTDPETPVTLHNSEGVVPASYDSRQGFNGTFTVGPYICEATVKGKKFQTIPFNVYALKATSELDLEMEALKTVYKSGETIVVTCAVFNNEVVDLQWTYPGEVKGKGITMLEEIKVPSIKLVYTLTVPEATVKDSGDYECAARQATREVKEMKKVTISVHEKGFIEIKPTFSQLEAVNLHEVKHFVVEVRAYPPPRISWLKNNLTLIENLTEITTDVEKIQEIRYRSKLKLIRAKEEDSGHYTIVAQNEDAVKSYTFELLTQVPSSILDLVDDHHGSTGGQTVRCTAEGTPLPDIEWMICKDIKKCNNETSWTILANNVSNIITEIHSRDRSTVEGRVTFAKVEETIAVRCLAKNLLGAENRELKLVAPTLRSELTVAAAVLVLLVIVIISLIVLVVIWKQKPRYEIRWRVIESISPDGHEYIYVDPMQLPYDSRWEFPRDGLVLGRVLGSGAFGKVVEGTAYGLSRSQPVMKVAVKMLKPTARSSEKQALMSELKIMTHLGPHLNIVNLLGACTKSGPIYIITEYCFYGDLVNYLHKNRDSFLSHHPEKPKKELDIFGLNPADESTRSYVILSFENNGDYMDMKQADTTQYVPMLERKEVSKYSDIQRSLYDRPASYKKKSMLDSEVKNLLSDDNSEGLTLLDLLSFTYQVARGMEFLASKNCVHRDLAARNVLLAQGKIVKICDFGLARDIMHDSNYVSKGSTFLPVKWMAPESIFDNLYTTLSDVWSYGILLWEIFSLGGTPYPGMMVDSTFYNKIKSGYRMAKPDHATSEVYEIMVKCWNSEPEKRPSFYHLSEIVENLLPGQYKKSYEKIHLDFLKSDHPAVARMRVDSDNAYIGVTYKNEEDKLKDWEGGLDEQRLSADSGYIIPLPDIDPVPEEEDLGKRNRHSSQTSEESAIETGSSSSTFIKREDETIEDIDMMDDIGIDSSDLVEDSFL

On to `O=C1Nc2ccc(Br)cc2C1=C1Nc2ccccc2C1=NOCCN1CCNCC1` [Compound (1289)], for which the IC50 is 7.6 nM on FMS; 1.2 nM on PDGFR β; 47.7 nM on c-KIT; below 0.5 nM at FLT3 (D835Y); 2.3 nM in the assay on MOLM13 AML cells; 0.56 nM on FLT3 (ITD). In addition, the IC50 amounted to 1.8 nM with MV4-11 AML cells, 13.6 nM at PDGFR α and 0.68 nM at FLT3. In addition, in the assay with Erk1/2, the “phosphorylation of Erk1/2” value is recorded as “blocked phosphorylation”. For the same molecule, the “phosphorylation of STAT5” value with STAT5 is on record as “blocked phosphorylation”. In the assay with MV4-11 AML SQ xenografts, the “efficacy in vivo on MV4-11 AML SQ xenografts” value is “shows efficacy in vivo”.
Take `CNCCO/N=C1/C(=C2/C(=O)Nc3ccc(Br)cc32)Nc2ccccc21` [5IN-1NH1]: the IC50 in the assay with MOLM13 AML cells turned out to be 11.3 nM; in [1], 174 nM; in the assay with MV4-11 AML cells it was 7.8 nM; in assay [2], 49.5 nM; in assay [3] (Homo sapiens, KCL-22, T315I ABL1 mutant KCL22 CML cells, MTS, 48 h, read-out: IC50 for 50% inhibition of viability), 52.3 nM; with KCL22 CML cells, 57.4 nM. Further, the IC50 came out at 35.7 nM in assay [4], 77.2 nM in the assay on A2058 melanoma cells and 66.5 nM with A549 lung cancer cells. For the same molecule, the “potency against T315I KCL22 CML cells relative to compound (1289)” value in [3] (more potent than compound (1289)) was “around 10 fold”.
